Consider 8 molecules from ChEMBL document CHEMBL3108773, “Antihyperglycemic glucosylated coumaroyltyramine derivatives from Teucrium viscidum” (J Nat Prod, 2014).

Data set [1] can be described thus: Cytotoxicity against mouse 3T3L1 cells assessed as cell viability up to 30 uM by MTT assay. Type of data set: cell-based. The following applies: 3t3-l1.
Data set [2] is described as follows: Antihyperglycemic activity in mouse 3T3L1 cells assessed as stimulation of glucose consumption at 2 uM after 36 hrs by glucose oxidase assay in presence of high glucose condition relative to control. Type of data set: functional, 3T3-L1.
Data set [3] concerns HepG2. As to the kind of experiment: Cytotoxicity against human HepG2 cells assessed as cell viability up to 30 uM by MTT assay. It is filed as cell-based.
In data set [4] the test system is HepG2. As to the kind of experiment: Antihyperglycemic activity in human HepG2 cells assessed as stimulation of glucose consumption at 2 uM after 36 hrs by glucose oxidase assay in presence of high glucose condition relative to control. It is filed as functional.

On to `COc1ccc(/C=C/C(=O)NCCc2ccc(O[C@@H]3O[C@@H](C)[C@H](OC(C)=O)[C@@H](O[C@@H]4O[C@H](COC(C)=O)[C@@H](O)[C@H](O)[C@H]4O)[C@H]3O[C@@H]3O[C@H](COC(C)=O)[C@@H](O)[C@H](O)[C@H]3O)cc2)cc1`, for which the Activity entry (in data set [1]; with HepG2 [3]) was “Non-toxic” throughout. The “fold change (FC)” value in data set [2] worked out at 1.6; in the data set on HepG2 [4] it was 1.7.

Consider `COc1ccc(/C=C\C(=O)NCCc2ccc(O[C@@H]3O[C@@H](C)[C@H](OC(C)=O)[C@@H](O[C@@H]4O[C@H](COC(C)=O)[C@@H](O)[C@H](O)[C@H]4O)[C@H]3O[C@@H]3O[C@H](COC(C)=O)[C@@H](O)[C@H](O)[C@H]3O)cc2)cc1`, for which the Activity result (in data set [1]; with HepG2 [3]) was “Non-toxic” each time. Moreover, the “fold change (FC)” value in data set [2] is on record as 1.6; in the data set with HepG2 [4], 1.7.

With `COc1ccc(/C=C/C(=O)NCCc2ccc(O[C@@H]3O[C@@H](C)[C@H](OC(C)=O)[C@@H](O[C@@H]4O[C@H](CO)[C@@H](O)[C@H](O)[C@H]4O)[C@H]3O[C@@H]3O[C@H](CO)[C@@H](O)[C@H](O)[C@H]3O)cc2)cc1`, the Activity entry (in data set [1]; in the data set on HepG2 [3]) was “Non-toxic” throughout. Moreover, the “fold change (FC)” value (in data set [2]; in the data set on HepG2 [4]) was 2.1 each time.

Turning to `COc1ccc(/C=C\C(=O)NCCc2ccc(O[C@@H]3O[C@@H](C)[C@H](OC(C)=O)[C@@H](O[C@@H]4O[C@H](CO)[C@@H](O)[C@H](O)[C@H]4O)[C@H]3O[C@@H]3O[C@H](CO)[C@@H](O)[C@H](O)[C@H]3O)cc2)cc1`, the Activity entry (in data set [1]; with HepG2 [3]) was “Non-toxic” throughout. For the same molecule, the “fold change (FC)” value in data set [2] was found to be 2.3; in the data set on HepG2 [4] it was 2.2.

Take `COc1ccc(/C=C\C(=O)NCCc2ccc(O[C@@H]3O[C@@H](C)[C@H](OC(C)=O)[C@@H](O[C@@H]4O[C@H](CO)[C@@H](O)[C@H](O)[C@H]4O)[C@H]3O[C@@H]3O[C@H](COC(C)=O)[C@@H](O)[C@H](O)[C@H]3O)cc2)cc1`: the Activity result (in data set [1]; in the data set with HepG2 [3]) was “Non-toxic” each time. Further, the figures for the “fold change (FC)” value (in data set [2]; in the data set with HepG2 [4]) were 1.6 and 1.7, respectively.

For `COc1ccc(/C=C\C(=O)NCCc2ccc(O[C@@H]3O[C@@H](C)[C@H](O)[C@@H](O[C@@H]4O[C@H](CO)[C@@H](O)[C@H](O)[C@H]4O)[C@H]3O[C@@H]3O[C@H](CO)[C@@H](O)[C@H](O)[C@H]3O)cc2)cc1`, the Activity entry (in data set [1]; in the data set with HepG2 [3]) was “Non-toxic” each time. For the same molecule, the results for the “fold change (FC)” value (in data set [2]; in the data set with HepG2 [4]) were 1.6 and 1.7, respectively.

Turning to `COc1ccc(/C=C/C(=O)NCCc2ccc(O[C@@H]3O[C@@H](C)[C@H](O)[C@@H](O[C@@H]4O[C@H](CO)[C@@H](O)[C@H](O)[C@H]4O)[C@H]3O[C@@H]3O[C@H](CO)[C@@H](O)[C@H](O)[C@H]3O)cc2)cc1`, the Activity entry (in data set [1]; in the data set with HepG2 [3]) was “Non-toxic” in each case. For the same molecule, the figures for the “fold change (FC)” value (in data set [2]; in the data set on HepG2 [4]) were 2.5 and 2.2, respectively.

Take `COc1ccc(/C=C/C(=O)NCCc2ccc(O[C@@H]3O[C@@H](C)[C@H](OC(C)=O)[C@@H](O[C@@H]4O[C@H](CO)[C@@H](O)[C@H](O)[C@H]4O)[C@H]3O[C@@H]3O[C@H](COC(C)=O)[C@@H](O)[C@H](O)[C@H]3O)cc2)cc1`: the Activity entry (in data set [1]; in the data set on HepG2 [3]) was “Non-toxic” in each case. Moreover, the “fold change (FC)” value in data set [2] was found to be 1.6; in the data set with HepG2 [4], 1.7.
